Results published in the Deep4Chem optical property database.

Assay: solvent given as SMILES

Compound: CN(C)c1ccc(/C=C/C=C2\CCCC2=O)cc1
- absorption maximum (in CC#N): 409 nm
- absorption maximum (in CC(C)=O): 416 nm
- absorption maximum (in CC(C)O): 420 nm
- absorption maximum (in CCCCCC): 394 nm
- absorption maximum (in CCCCO): 425 nm
- absorption maximum (in CCCO): 422 nm
- absorption maximum (in CCO): 422 nm
- absorption maximum (in CCOC(C)=O): 408 nm
- absorption maximum (in CCOCC): 399 nm
- absorption maximum (in CN(C)C=O): 408 nm
- absorption maximum (in CO): 420 nm
- absorption maximum (in CS(C)=O): 416 nm
- absorption maximum (in Cc1ccccc1): 409 nm
- absorption maximum (in ClC(Cl)(Cl)Cl): 407 nm
- absorption maximum (in ClC(Cl)Cl): 404 nm
- absorption maximum (in ClCCl): 420 nm
- absorption maximum (in c1ccccc1): 411 nm
- absorption maximum (in c1ccncc1): 419 nm

Compound: CC1(C)c2ccccc2N(c2ccc3c(c2)c2cc(N4c5ccccc5C(C)(C)c5ccccc54)ccc2c2nc4ccccc4nc32)c2ccccc21
- absorption maximum (in Cc1ccccc1): 380 nm

Compound: COC(=O)c1nc2c(N)nc(N(C)C)nc2n1Cc1ccccc1
- absorption maximum (in C1COCCO1): 340 nm
- absorption maximum (in CC#N): 342 nm
- absorption maximum (in CO): 345 nm
- absorption maximum (in ClCCl): 338 nm

Compound: CCCCCCCC[n+]1ccc(-c2cc[n+](CCCCCCCC)cc2)cc1
- absorption maximum (in CC#N): 264 nm

Compound: c1ccc(-n2c3ccccc3c3cc(-c4ccn5nc(-c6ccc(-n7c8ccccc8c8ccccc87)cc6)nc5c4)ccc32)cc1
- absorption maximum (in C1CCOC1): 341 nm

Compound: CCCN1c2ccccc2Sc2cc(/C=C\c3cc(=O)oc4cc(NC(=O)OCC)ccc34)ccc21
- absorption maximum (in ClC(Cl)Cl): 422 nm

Compound: c1ccc(-c2cc(-c3ccccc3)cc(-c3ccc4c(c3)C3(c5cc(-c6cc(-c7ccccc7)cc(-c7ccccc7)c6)ccc5-4)c4ccccc4-c4c3c3c5ccccc5ccc3c3ccccc43)c2)cc1
- absorption maximum (in C1CCOC1): 379 nm

Compound: c1ccc(-c2ccc(-c3nc(-n4c5ccccc5c5ccc6c7ccccc7n(-c7ccccc7)c6c54)nc(-n4c5ccccc5c5ccc6c7ccccc7n(-c7ccccc7)c6c54)n3)cc2)cc1
- absorption maximum (in Cc1ccccc1): 403 nm

Compound: CCCCCCN(CCCCCC)c1ccc(C#Cc2ccc(C#N)cc2)cc1
- absorption maximum (in CC#N): 379 nm
- absorption maximum (in CO): 378 nm
- absorption maximum (in ClCCl): 385 nm

Compound: Cc1ccc(C2=C3C=CC(Oc4ccccc4)=[N+]3[B-](F)(F)n3c(Oc4ccccc4)ccc32)cc1
- absorption maximum (in C1CCOC1): 516 nm

Compound: CC1=CC(C)=[N+]2C1=C(c1ccc(Br)cc1)c1c(C)cc(/C=C/c3ccc[nH]3)n1[B-]2(F)F
- absorption maximum (in ClCCl): 590 nm

Compound: Cc1ccc(-c2ccc(/C=C/c3ccc(Cl)cc3)cn2)nc1
- absorption maximum (in CC#N): 337 nm

Compound: C#CCNC1=C2C(C)=CC(C)=[N+]2[B-](F)(F)n2c(C)cc(C)c21
- absorption maximum (in C1CCCCC1): 468.5 nm
- absorption maximum (in CC(C)=O): 453 nm
- absorption maximum (in CCOC(C)=O): 457 nm
- absorption maximum (in CO): 453 nm
- absorption maximum (in OCC(F)(F)F): 450.5 nm

Compound: COc1ccc2c3c(c4ccc(OC)cc4c2c1)C1(c2ccccc2-c2ccccc21)c1ccccc1-3
- absorption maximum (in C1CCCCC1): 386 nm

Compound: CC/[NH+]=c1\cc2oc3cc(NCCC(=O)NC(C(=O)OC)C(C)C)c4ccccc4c3nc-2cc1C (centres undefined)
- absorption maximum (in CCO): 590 nm
- absorption maximum (in O): 580 nm

Compound: CC(C)[Si](C#Cc1c2ccccc2c(C#C[Si](C(C)C)(C(C)C)C(C)C)c2nc3c(ccc4ccccc43)nc12)(C(C)C)C(C)C
- absorption maximum (in CCCCCC): 544 nm

Compound: COc1cccc(-c2[nH]c(=O)n3c2-c2ccccc2C3=O)c1O
- absorption maximum (in CC#N): 393 nm
- absorption maximum (in CO): 395 nm
- absorption maximum (in ClCCl): 396 nm

Compound: CN(c1ccccc1)c1ccc(/C=C2\C(=O)c3ccccc3S2(=O)=O)cc1
- absorption maximum (in C1CCOC1): 468 nm
- absorption maximum (in C1COCCO1): 466 nm
- absorption maximum (in CC#N): 471 nm
- absorption maximum (in CC(C)=O): 470 nm
- absorption maximum (in CCOC(C)=O): 465 nm
- absorption maximum (in CN(C)C=O): 478 nm
- absorption maximum (in CO): 475 nm
- absorption maximum (in CS(C)=O): 483 nm
- absorption maximum (in Cc1ccccc1): 472 nm
- absorption maximum (in ClC(Cl)Cl): 479 nm
- absorption maximum (in ClCCl): 476 nm

Compound: CCCCCCCCCCCCOc1cc(C(=O)Nc2ccc(-c3ccc4c(c3)C(=O)c3ccccc3-4)cc2)cc(OCCCCCCCCCCCC)c1OCCCCCCCCCCCC
- absorption maximum (in C1CCOC1): 432 nm

Compound: COc1ccc(-c2c3ccccc3c(C#Cc3ccccc3)c3cc4cc(C)sc4cc23)cc1
- absorption maximum (in ClCCl): 481 nm

Compound: c1ccc(-n2c(-c3ccc(-n4c5ccccc5c5ccccc54)cc3)nc3nccnc32)cc1
- absorption maximum (in CC#N): 339 nm

Compound: O=S1(=O)c2ccc(-c3ccc(-n4c5ccccc5c5ccccc54)cc3)cc2C2(c3ccccc3-c3ccccc32)c2cc(-c3ccc(-n4c5ccccc5c5ccccc54)cc3)ccc21
- absorption maximum (in ClCCl): 341 nm

Compound: O=C(O)COc1cccc(-c2c3nc(cc4ccc([nH]4)c(-c4cccc(OCC(=O)O)c4)c4nc(cc5ccc2[nH]5)CC4)C=C3)c1
- absorption maximum (in CS(C)=O): 644 nm

Compound: COc1ccc2c3c(c4ccc(OC)cc4c2c1)C(C)(C)c1ccccc1-3
- absorption maximum (in C1CCCCC1): 388 nm

Compound: O=C(c1ccc(-n2c3ccccc3c3cc(-n4c5ccccc5c5ccccc54)ccc32)cc1)c1ccc(-n2c3ccccc3c3cc(-n4c5ccccc5c5ccccc54)ccc32)cn1
- absorption maximum (in Cc1ccccc1): 345 nm

Compound: C1=C(c2ccccc2)S[C@]23C1=C(c1ccccc1)[C@H](c1ccccc12)c1ccccc13
- absorption maximum (in ClCCl): 378 nm

Compound: CCCCC(CC)Cn1c2cc(C#N)ccc2c2ccc(C#N)cc21 (centres undefined)
- absorption maximum (in ClCCl): 387 nm

Compound: COc1cc2c(cc1OC)C1=C[C@H](c3ccccc3)C3(C(C#N)=C(C#N)N1CC2)c1cc(Br)ccc1-c1ccc(Br)cc13
- absorption maximum (in ClCCl): 311 nm

Compound: CN(C)c1ccc(-c2nc3nc4ccccc4nc3n2-c2ccccc2)cc1
- absorption maximum (in CC#N): 411 nm

Compound: CN(C)c1ccc(C=C/C=C/C=C/c2ccc(C#N)cc2)cc1
- absorption maximum (in C1CCOC1): 420 nm
- absorption maximum (in CC#N): 418 nm
- absorption maximum (in CCCC#N): 422 nm
- absorption maximum (in CCCCCC): 412 nm
- absorption maximum (in CCCCOCCCC): 416 nm
- absorption maximum (in CCO): 418 nm
- absorption maximum (in CCOCC): 416 nm

Compound: CCN(CC)c1ccc2cc(C#N)c(=N)oc2c1
- absorption maximum (in ClCCl): 428 nm

Compound: CCOC(=O)c1c(-c2cc3cc4c(cc3oc2=O)OC(C)(C)CC4)nn(-c2cccc(C)c2)c1C(=O)OCC
- absorption maximum (in ClCCl): 347 nm

Compound: CCN(CC)c1ccc2c(c1)oc(=O)c1c(=O)oc3cc(C#Cc4ccc(C#N)cc4)ccc3c12
- absorption maximum (in CS(C)=O): 481 nm
- absorption maximum (in ClCCl): 476 nm

Compound: CN(C)c1ccc(C(=Cc2ccc(/C=C/c3ccc(C#N)cc3)cc2)c2ccc(N(C)C)cc2)cc1
- absorption maximum (in C1CCOC1): 415 nm

Compound: CN1C(=CC2=C([O-])C(=CC3=[N+](C)c4ccccc4C3(C)C)C2=C2C(=O)c3ccccc3C2=O)C(C)(C)c2ccccc21
- absorption maximum (in ClC(Cl)Cl): 675 nm

Compound: N#C/C(=C\c1ccc(/C=C/c2ccc(N(c3ccccc3)c3ccccc3)cc2)s1)C(=O)O
- absorption maximum (in ClCCl): 490 nm

Compound: C[Si](C)(C)C#Cc1cc(C#C[Si](C)(C)C)c2ccc3c(C(=O)c4ccccc4)cc(C#C[Si](C)(C)C)c4ccc1c2c43
- absorption maximum (in ClCCl): 426 nm

Compound: CCN(CC)c1ccc2cc(-c3nc4ccccc4n3-c3ccccc3)c(=O)oc2c1
- absorption maximum (in ClCCl): 410 nm

Compound: C[NH+](C)c1c2ccccc2cc2ccccc12
- absorption maximum (in O): 389 nm

Compound: Cc1ccc(N(c2ccc(C)cc2)c2ccc(-c3c4ccccc4c(-c4ccc(N(c5ccc(C)cc5)c5ccc(C)cc5)cc4)c4nsnc34)cc2)cc1
- absorption maximum (in Cc1ccccc1): 538 nm
- absorption maximum (in ClCCl): 536 nm

Compound: c1ccc(C(=C(c2ccccc2)c2ccc(-c3nc4c(-c5ccc(C(=C(c6ccccc6)c6ccccc6)c6ccccc6)cc5)sc(-c5ccc(C(=C(c6ccccc6)c6ccccc6)c6ccccc6)cc5)c4nc3-c3ccc(C(=C(c4ccccc4)c4ccccc4)c4ccccc4)cc3)cc2)c2ccccc2)cc1
- absorption maximum (in Cc1ccccc1): 538 nm
- absorption maximum (in ClCCl): 520 nm
